Test results from US8008299B2, “Urotensin II receptor antagonists” (Janssen Pharmaceutica, N.V., priority 2007, dated 2011).

Legend:
[1] = target: T1, rat GPR14 (U-II receptor) (Rattus norvegicus, UniProt P49684); experiment: Rat UII Calcium Mobilization FLIPR Assay; type: cell-based; conditions: CHO cells transfected with rat GPR14; antagonist activity after 5 min incubation vs agonist (Ac)-CFWK(2-NaI)C-NH2 at 1 nM
T1 construct: expressed in transfected cells
T1 sequence (P49684 1-386): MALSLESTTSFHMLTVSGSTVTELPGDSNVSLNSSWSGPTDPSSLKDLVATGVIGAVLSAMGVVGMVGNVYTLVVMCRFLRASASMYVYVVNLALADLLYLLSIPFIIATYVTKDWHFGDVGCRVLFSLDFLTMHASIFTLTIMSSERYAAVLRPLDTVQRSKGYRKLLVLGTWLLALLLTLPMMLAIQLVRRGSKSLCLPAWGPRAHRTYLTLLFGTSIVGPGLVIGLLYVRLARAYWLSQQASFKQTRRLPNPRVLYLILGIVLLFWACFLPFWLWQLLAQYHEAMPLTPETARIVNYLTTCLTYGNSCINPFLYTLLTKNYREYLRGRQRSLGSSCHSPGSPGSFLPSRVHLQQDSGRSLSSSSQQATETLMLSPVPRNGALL
Text: To derive these cells, the complete coding sequence of rat U-II (Genbank Accession No. U32673) was amplified by nested PCR from rat heart marathon-Ready cDNA. […] The PCR products were cloned into pcDNA3 (Invitrogen) digested with EcoR I and Xba I. Clones containing rat U-II receptor were verified by complete sequencing of the U-II receptor insert to ensure a lack of PCR-introduced errors. The constructed vector was transfected into CHO cells by using lipofectamine (GIBCO BRL). CHO cells with high expression of rat U-II receptor were selected and established as stable cell lines by using G418. CHO cells were seeded at 25,000 cells per well into 96-well, black-wall, clear-bottom microtiter plates 24 h before assay. Cells in culture media (DMEM/F12 containing 15 mM HEPES, L-glutamine, pyridoxine hydrochloride; 10% fetal bovine serum; 1 mg/mL G418 sulfate; antibiotic-antimycotic; pH 7.4) were loaded with proprietary dye, from the FLIPR Calcium Assay Kit (Molecular Devices), prepared in assay buffer (Hanks Balanced Salts Solution, 20 mM HEPES, 0.1% BSA, 2.5 mM probenecid, pH 7.4), and incubated for 1 h at 37° C. Calcium mobilization determinations were performed at room temperature (23° C.).

[2] = target: T2, Human UII (U-II receptor) in 6D9 human rhabdomyosarcoma cells (Homo sapiens, UniProt Q9UKP6); experiment: Human UII Calcium Mobilization Assay; type: cell-based; conditions: 6D9 human rhabdomyosarcoma cells, FLIPR TETRA, average; read-out: Human UII Ca+ Mobilization Average IC50
T2 construct: 6D9: isolated by dilution subcloning of RMS13 cells, ATCC® Number: CRL-2061; host or cells: 6D9 human rhabdomyosarcoma cells (subclone of RMS13)
T2 sequence (Q9UKP6 1-389): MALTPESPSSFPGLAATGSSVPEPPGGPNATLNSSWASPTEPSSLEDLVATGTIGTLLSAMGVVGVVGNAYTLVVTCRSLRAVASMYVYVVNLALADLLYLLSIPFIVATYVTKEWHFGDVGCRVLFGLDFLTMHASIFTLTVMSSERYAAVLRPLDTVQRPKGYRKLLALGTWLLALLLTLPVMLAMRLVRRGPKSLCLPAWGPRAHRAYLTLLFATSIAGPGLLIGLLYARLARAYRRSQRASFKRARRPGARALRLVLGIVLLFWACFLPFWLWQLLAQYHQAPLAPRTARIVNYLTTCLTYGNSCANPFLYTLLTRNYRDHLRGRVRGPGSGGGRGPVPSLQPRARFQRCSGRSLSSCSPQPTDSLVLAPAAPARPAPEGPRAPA
Method: 25 μL of dye solution was added to the wells such that the final liquid volume before agonist/antagonist treatment was 50 μL for all assays. The cell plates were incubated at 37° C. for 45 minutes and the fluorescence intensity was measured on a Fluorometric Imaging Plate Reader (FLIPR^TETRA, Molecular Devices, Sunnyvale, Calif.).
Antagonist and agonist U-II were added at room temperature on the FLIPR^TETRA, and the fluorescence intensity before and after addition was measured over a period of 4 minutes. The dye incubation time and temperature as well as instrument setting was adjusted so the fluorescence intensity could be compared between plates on the same day. EC50 and IC50 were analyzed using GraphPad Prism 4 software (GraphPad Software Inc., San Diego, Calif.).
For assays, U-II agonist, U-II antagonist and urantide were diluted with HBSS/HEPES containing 0.01% FBS.
Test compounds were dissolved in DMSO at 10 mM concentration. The serial dilutions were carried out in HBSS/HEPES. The highest final DMSO concentration was at 0.1%.

[3] = target: T3, UT receptors in HSMM (Human Skeletal Muscle Myoblasts) (Homo sapiens, UniProt Q9UKP6); experiment: Human Radioligand Binding Assay ((^125I)-U-II binding to intact HSMM)
T3 sequence (Q9UKP6 1-389): T2 sequence (Q9UKP6 1-389)

Row | SMILES | IC50 [1] | IC50 [2] | Ki [3]
1 | CCN1CCN(c2cccc3c2CN([C@H](CCCNC(=O)c2ccnnc2)c2ccc(OC)c(OC)c2)C3=O)CC1 [Cpd 61, pyridazine-4-carboxylic acid {(4R)-4-(3,4-dimethoxy-phenyl)-4-[4-(4-ethyl-piperazin-1-yl)-1-oxo-1,3-dihydro-isoindol-2-yl]-butyl}-amide] | 0.069 µM | 0.858 µM | 0.029 µM
2 | CCN1CCN(c2cccc3c2CN([C@H](CCCN(C)S(=O)(=O)c2cccs2)c2ccc(OC)c(OC)c2)C3=O)CC1 [Cpd 62, thiophene-2-sulfonic acid {(4R)-4-(3,4-dimethoxy-phenyl)-4-[4-(4-ethyl-piperazin-1-yl)-1-oxo-1,3-dihydro-isoindol-2-yl]-butyl}-methyl-amide] | 0.007 µM | 0.088 µM | –
3 | CCN1CCN(c2cccc3c2CN([C@H](CCCc2ccccc2)c2ccc(OC)c(OC)c2)C3=O)CC1 [Cpd 87, 2-[(1R)-1-(3,4-dimethoxy-phenyl)-4-phenyl-butyl]-4-(4-ethyl-piperazin-1-yl)-2,3-dihydro-isoindol-1-one] | 0.006 µM | – | 0.037 µM
4 | COc1ccc([C@@H](CCCN(C)S(=O)(=O)c2cccs2)N2Cc3c(cccc3N3CCN(C)CC3)C2=O)cc1OC [Cpd 26, thiophene-2-sulfonic acid {(4R)-4-(3,4-dimethoxy-phenyl)-4-[4-(4-methyl-piperazin-1-yl)-1-oxo-1,3-dihydro-isoindol-2-yl]-butyl}-methyl-amide] | 0.016 µM | 0.337 µM | –
5 | COc1ccc([C@@H](CCCSc2nnnn2C)N2Cc3c(cccc3N3CCNCC3)C2=O)cc1OC [Cpd 24, 2-[(1R)-1-(3,4-dimethoxy-phenyl)-4-(1-methyl-1H-tetrazol-5-ylsulfanyl)-butyl]-4-piperazin-1-yl-2,3-dihydro-isoindol-1-one] | 0.165 µM | 1.55 µM | –

Other lines, results leading:

Row | IC50 [1] | IC50 [2] | Ki [3] | SMILES
6 | 0.337 µM | 0.662 µM | 0.074 µM | CCN1CCN(c2cccc3c2CN(C(CC2CCN(S(=O)(=O)O)CC2)c2ccc(OC)c(OC)c2)C3=O)CC1 (stereo not drawn) [Cpd 17, 4-{2-(3,4-dimethoxy-phenyl)-2-[4-(4-ethyl-piperazin-1-yl)-1-oxo-1,3-dihydro-isoindol-2-yl]-ethyl}-piperidine-1-sulfonic acid]
7 | 2.15 µM | > 10 µM | – | CCN1CCN(c2cccc3c2CN([C@H](CCCOCc2cccc(C)c2)c2ccc(OC)c(OC)c2)C3=O)CC1 [Cpd 55, 2-[(1R)-1-(3,4-dimethoxy-phenyl)-4-(3-methyl-benzyloxy)-butyl]-4-(4-ethyl-piperazin-1-yl)-2,3-dihydro-isoindol-1-one]
8 | 0.006 µM | – | 0.01 µM | CCN1CCN(c2cccc3c2CN([C@H](CCCN(Cc2ccc(F)cc2)C(C)=O)c2ccc(OC)c(OC)c2)C3=O)CC1 [Cpd 88, N-{(4R)-4-(3,4-dimethoxy-phenyl)-4-[4-(4-ethyl-piperazin-1-yl)-1-oxo-1,3-dihydro-isoindol-2-yl]-butyl}-N-(4-fluoro-benzyl)-acetamide]
9 | 0.26 µM | – | > 0.3 µM | CCN1CCN(c2cccc3c2CN([C@H](CCCNc2ccc4ccccc4n2)c2ccc(OC)c(OC)c2)C3=O)CC1 [Cpd 89, 2-[(1R)-1-(3,4-dimethoxy-phenyl)-4-(quinolin-2-ylamino)-butyl]-4-(4-ethyl-piperazin-1-yl)-2,3-dihydro-isoindol-1-one]
10 | 3.13 µM | > 10 µM | – | CCN1CCN(c2cccc3c2CN([C@H](CCCOCc2cccc(F)c2)c2ccc(OC)c(OC)c2)C3=O)CC1 [Cpd 52, 2-[(1R)-1-(3,4-dimethoxy-phenyl)-4-(3-fluoro-benzyloxy)-butyl]-4-(4-ethyl-piperazin-1-yl)-2,3-dihydro-isoindol-1-one]
11 | < 1 µM | – | 0.386 µM | CCN1CCN(c2cccc3c2CN([C@H](CCc2ccc4c(n2)NCCC4)c2ccc(OC)c(OC)c2)C3=O)CC1 [Cpd 86, 2-[(1R)-1-(3,4-dimethoxy-phenyl)-3-(5,6,7,8-tetrahydro-[1,8]naphthyridin-2-yl)-propyl]-4-(4-ethyl-piperazin-1-yl)-2,3-dihydro-isoindol-1-one]
